{
  "source": "patent US6358975B1",
  "about": "“Method of using selective parp inhibitors to prevent or treat neurotoxicity” (Johns Hopkins University, priority 1997, dated 2002)",
  "key": {"[1]": {"system": "infarct size in the heart", "details": "rabbits, cited from earlier work"}, "[2]": {"system": "OGD toxicity in cortical cultures", "experiment": "Oxygen-glucose deprivation (OGD) toxicity in cortical cultures (FIG. 2C)", "assay_type": "cell-based, mice", "details": "60 minutes OGD, MK801 10 μM, NArg 100 μM, L-arginine 1 mM, benzamide 500 μM; for effect on OGD toxicity in wild-type and PARP+/− cultures: DPQ 10 μM", "protocol": "See Dawson et al., “Resistance to Neurotoxicity in Cortical Cultures from Neuronal Nitric Oxide Synthase Deficient Mice”, J. Neurosci., 16:2479-87 (1996), the disclosure of which is hereby incorporated by reference. Combined OGD was performed as described in Kaku et al., “Antagonism by non-NMDA Receptors Augments the Neuroprotective Effect of NMDA Receptor Blockage in Cortical Cultures Subjected to Prolonged Deprivation of Oxygen and Glucose”, Brain Res., 554:344-47 (1991) and/or Monyer et al., “Oxygen or Glucose Deprivation-induced Neuronal Injury in Cortical Cell Cultures is Reduced by Tetanus Toxin, Neuron, 8:967-73 (1992), both of which are hereby incorporated by reference.\nSpecifically, the culture media was completely exchanged with deoxygenated, glucose-free Earle's balanced salt solution (EBSS) containing: 116 mM NaCl, 5.4 mM KCl, 0.8 mM MgSO4, 1 mM NaH2PO4, and 0.9 mM CaCl2, bubbled with 5% H2/85% N2/5% CO2. The cultures were kept in a 37° C., anaerobic chamber for 60 minutes containing the gas mixture 5% H2/85% N2/5% CO2. Combined oxygen-glucose deprivation was terminated by removal of the cultures from the chamber and replacement of the EBSS solution with oxygenated growth media. The cultures were returned to a humidified incubator containing 5% CO2 and atmospheric oxygen at 37° C. overnight.\n(§1) Toxicity was assayed 20-24 hours after exposure to cytotoxic conditions by microscopic examination with computer-assisted cell counting, following staining of all nuclei with 1 μg/ml Hoescht 33342 and staining of dead cell nuclei with 7 μg/ml propidium iodide. All reagents were purchased from Sigma Chemicals, St. Louis, Mo.\n(§2) Both total and dead cells were counted. Glial nuclei fluoresce at a different intensity than neuronal nuclei and were gated out. The percentage of cell death was determined as the […], as compared to the percentage of cell death in control wells to account for cell death due to mechanical stimulation of the cultures. At least two separate experiments using four separate wells were performed. The results are shown in FIG. 2A, with a minimum of 15,000-20,000 neurons counted per data point, which represented the mean ± standard error of the mean (SEM)(n=8)."}, "[3]": {"system": "NMDA toxicity in cerebral cortical cultures", "experiment": "NMDA toxicity in cortical cultures from wild-type, PARP+/− and PARP−/− mice (FIG. 2B)", "assay_type": "cell-based", "details": "for effect on NMDA toxicity in PARP−/− cultures / effect on NMDA toxicity in wild-type and PARP+/− cultures: 500 μM NMDA, BZD 500 μM, DPQ 10 μM; for effect on NMDA toxicity in PARP−/− cultures: L-Arg 1 mM; for effect on NMDA toxicity in wild-type and PARP+/− cultures: five minutes, MK801 1 μM, NArg 100 μM", "protocol": "(§3) Mice were obtained having a targeted disruption of the PARP gene (PARP−/−), generated by the method of Wang et al., “Mice Lacking ADPRT and poly(ADP-ribosyl)ation Develop Normally But Are Susceptible to Skin Disease”, Genes Dev., 9:509-20 (1995), which is hereby incorporated by reference. The toxicity in cortical cultures elicited by a five-minute exposure to 500 μM NMDA, by 60 minutes of oxygen and glucose deprivation (OGD), and by NO-donors was evaluated, comparing cultures or cerebral cortical cells from wild-type and PARP−/− mice, as shown in FIG. 2A.\nas §1, §2"}, "[4]": {"system": "NMDA- or NO-induced neurotoxicity in primary cortical cell cultures", "experiment": "Attenuation of NMDA- and NO (SNP)-induced neurotoxicity in primary cortical cell cultures (Example 1, FIG. 1)", "assay_type": "cell-based, mice", "details": "for EC50: Mus musculus, read-out: protection against NMDA- or NO-induced neurotoxicity, EC50 (50% of maximal protection)", "protocol": "Primary cortical cell cultures were prepared from gestational, 16-day fetal mice in a procedure modified from the described in Dawson et al., “Resistance to Neurotoxicity in Cortical Cultures from Neuronal Nitric Oxide Synthase Deficient Mice”, J. Neurosci., 16:2479-87 (1996), the disclosure of which is hereby incorporated by reference. Specifically, the cortex was dissected, and the cortical cells were dissociated by a 30-minute digestion in 0.027% trypsin/saline solution (commercially available from Gibco BRL, Gaithersburg, Md.), followed by trituration in modified Eagle's medium (MEM), 20% horse serum, 25 mM glucose and 2 mM L-glutamine.\nThe cells were plated on 15 mm multi-well plates coated with polyornithine. Four days after plating, the cells were treated with 5-fluoro-2-deoxyuridine for three days to inhibit the proliferation of non-neuronal cells. The cells were then maintained in MEM, 10% horse serum, 25 mM glucose, and 2 mM L-glutamine in an 8% CO2, humidified 37° C. incubator. The growth medium was refreshed twice per week, and the neurons were allowed to mature for 14 days in culture before being used for experiments.\nBefore treatment, these critical cultures were washed with Tris buffered control salt solution (CSS) containing 120 mM NaCl, 5.4 mM KCl, 1.8 mM CaCl2, 25 mM Tris-HCl (pH 7.4) and 15 mM glucose. The washed cells were treated with NMDA or the NO-donor sodium nitroprusside (SNP) for five minutes and then washed again. The cells were then placed in growth media and returned to the incubator overnight.\nEach data point represented the mean ± standard error of the mean (SEM) (n=8) of at least two separate experiments and reflected a minimum of 16,000 neurons counted."}, "[5]": {"system": "NMDA toxicity in cerebral cortical cultures", "details": "concentration of 100 μM; Zhang et al. 1994; cited from earlier work"}, "PARP": {"biological_target": "T1, PARP (Mus musculus, UniProt P11103)", "T1 construct": "from tissue; host or cells: mouse brain (forebrain) nuclear fraction, wild-type 129/SV", "T1 sequence (P11103 whole entry)": "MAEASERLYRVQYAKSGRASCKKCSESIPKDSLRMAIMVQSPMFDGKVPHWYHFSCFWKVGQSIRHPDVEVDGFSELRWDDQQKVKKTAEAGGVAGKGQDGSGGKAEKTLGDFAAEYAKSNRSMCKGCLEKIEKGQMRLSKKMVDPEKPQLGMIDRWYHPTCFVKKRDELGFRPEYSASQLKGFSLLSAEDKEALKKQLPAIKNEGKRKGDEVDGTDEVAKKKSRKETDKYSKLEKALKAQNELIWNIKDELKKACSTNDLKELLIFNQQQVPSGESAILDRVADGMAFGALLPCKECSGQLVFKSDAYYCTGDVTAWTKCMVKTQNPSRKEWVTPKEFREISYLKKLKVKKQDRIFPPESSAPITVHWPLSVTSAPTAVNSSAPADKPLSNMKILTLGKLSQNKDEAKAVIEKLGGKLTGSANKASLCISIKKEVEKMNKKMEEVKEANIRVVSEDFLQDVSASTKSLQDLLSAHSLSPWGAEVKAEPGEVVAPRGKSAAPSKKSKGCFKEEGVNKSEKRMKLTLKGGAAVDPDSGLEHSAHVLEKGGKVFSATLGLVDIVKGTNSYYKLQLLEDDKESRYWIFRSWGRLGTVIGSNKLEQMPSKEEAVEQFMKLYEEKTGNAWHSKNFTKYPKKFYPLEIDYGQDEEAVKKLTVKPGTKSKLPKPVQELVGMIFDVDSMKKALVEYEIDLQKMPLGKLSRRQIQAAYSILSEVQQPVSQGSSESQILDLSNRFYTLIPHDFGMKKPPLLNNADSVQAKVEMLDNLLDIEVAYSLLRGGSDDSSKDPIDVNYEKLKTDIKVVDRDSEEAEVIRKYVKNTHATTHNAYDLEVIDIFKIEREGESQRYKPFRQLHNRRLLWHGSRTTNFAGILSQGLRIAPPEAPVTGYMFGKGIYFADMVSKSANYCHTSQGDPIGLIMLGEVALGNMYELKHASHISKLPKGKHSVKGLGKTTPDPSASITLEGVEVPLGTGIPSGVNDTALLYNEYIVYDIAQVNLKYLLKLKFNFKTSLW", "experiment": "PARP catalytic (self-modification) assay, mouse brain nuclear fraction", "assay_type": "biochemical", "details": "benzamide treatment"}, "[6]": {"biological_target": "poly(ADP-ribose) polymerase", "details": "read-out: IC50 for inhibiting PARP; reported by Suto et al.; cited from earlier work"}, "[7]": {"system": "toxicity elicited by the NO-donor SNP in cortical cultures", "experiment": "SNP (NO-donor) toxicity in cortical cultures from wild-type, PARP+/− and PARP−/− mice", "assay_type": "cell-based", "protocol": "as §3, §1\nas §2, with “At least two separate experiments using four separate wells were performed.” left out"}},
  "note": "Read-outs that look alike come from different tables or passages of the source.",
  "data": [
    {"smiles": "Oc1cccc2c(O)nccc12", "note": "[1,5-dihydroxyisoquinoline]", "values": [
      {"measurement": "reduction in infarct size", "setting": "[1]; 1 mg/kg", "value": "38-48%"}
    ]},
    {"smiles": "NC(=O)c1cccc(N)c1", "note": "[3-aminobenzamide]", "values": [
      {"measurement": "reduction in infarct size in the heart", "setting": "[1]; single injection 10 mg/kg one minute before occlusion or one minute before reperfusion", "value": "32-42%"}
    ]},
    {"smiles": "N=C(N)NCCC[C@H](N)C(=O)O", "note": "[L-arginine]", "values": [
      {"measurement": "effect on OGD toxicity in PARP−/− cultures", "setting": "[2]", "value": "not in PARP−/− cultures"},
      {"measurement": "effect on OGD toxicity in wild-type and PARP+/− cultures", "setting": "[2]", "value": "reversed the nitroarginine protection"},
      {"measurement": "effect on NMDA toxicity in PARP−/− cultures", "setting": "[3]", "value": "no significant effect"},
      {"measurement": "reversal of nitroarginine neuroprotection against NMDA toxicity in wild-type cultures", "setting": "[3]; L-Arg 1 mM with NArg 100 μM", "value": "reversed the neuroprotective effect of nitroarginine"}
    ]},
    {"smiles": "NC(=O)c1ccccc1", "note": "[benzamide]", "values": [
      {"measurement": "effect on OGD toxicity in PARP−/− cultures", "setting": "[2]", "value": "no influence"},
      {"measurement": "effect on OGD toxicity in wild-type and PARP+/− cultures", "setting": "[2]", "value": "reduced OGD toxicity"},
      {"measurement": "effect on NMDA toxicity in wild-type and PARP+/− cultures", "setting": "[3]", "value": "reduced NMDA toxicity"},
      {"measurement": "effect on NMDA toxicity in PARP−/− cultures", "setting": "[3]", "value": "no significant effect"},
      {"measurement": "reduction of neurotoxicity at the maximally effective concentration", "setting": "[4]; 500 μM NMDA or 500 μM SNP, maximally effective concentration", "value": 65, "unit": "%"},
      {"measurement": "EC50", "setting": "[4]", "value": "~100000", "unit": "nM"},
      {"measurement": "protection against NMDA neurotoxicity", "setting": "[5]", "value": "~50", "unit": "%"},
      {"measurement": "other ribosylated nuclear proteins (gray background) in wild-type catalytic assay", "setting": "PARP", "value": "reduced"}
    ]},
    {"smiles": "O=C1NCCc2c(OCCCCN3CCCCC3)cccc21", "note": "[DPQ, 3,4-dihydro-5-[4-(1-piperidinyl)-butoxy]-1(2H)-isoquinolinone]", "values": [
      {"measurement": "effect on OGD toxicity in wild-type and PARP+/− cultures", "setting": "[2]", "value": "abolished OGD toxicity"},
      {"measurement": "effect on NMDA toxicity in wild-type and PARP+/− cultures", "setting": "[3]", "value": "significantly greater reduction of NMDA toxicity than benzamide"},
      {"measurement": "effect on NMDA toxicity in PARP−/− cultures", "setting": "[3]", "value": "no significant effects"},
      {"measurement": "IC50", "setting": "[6]", "value": 40, "unit": "nM"},
      {"measurement": "potency relative to benzamide", "setting": "[4]; DPQ vs benzamide", "value": 500, "unit": "times"},
      {"measurement": "EC50", "setting": "[4]; five-minute exposure to 500 μM NMDA or 500 μM SNP", "value": 200, "unit": "nM"},
      {"measurement": "effect on neurotoxicity at 10-100 μM", "setting": "[4]; concentrations of 10-100 μM", "value": "virtually abolished neurotoxicity"},
      {"measurement": "effect on SNP toxicity in PARP−/− cultures", "setting": "[7]", "value": "no effect"},
      {"measurement": "effect on SNP toxicity in wild-type and PARP+/− cultures", "setting": "[7]; not shown in FIG. 2", "value": "reduced the toxicity"}
    ]},
    {"smiles": "C[C@]12N[C@H](Cc3ccccc31)c1ccccc12", "note": "[MK801]", "values": [
      {"measurement": "effect on OGD toxicity in PARP−/− cultures", "setting": "[2]", "value": "no differential effects"},
      {"measurement": "effect on OGD toxicity in wild-type and PARP+/− cultures", "setting": "[2]", "value": "profoundly reduced toxicity"},
      {"measurement": "effect on NMDA toxicity in wild-type and PARP+/− cultures", "setting": "[3]", "value": "abolished NMDA toxicity"}
    ]}
  ]
}
